Assay results as given in patent US12448388B2, “PRMT5 inhibitors and uses thereof” (Gilead Sciences, Inc., priority 2023, dated 2025).
Read-outs that look alike come from different tables or passages of the source.

Legend:
[1] = Cell viability assay (CellTiter-Glo, 7 days), HCT116 WT; assay type: cell-based; details: human, HCT116 WT cells, 7 days of treatment, CTG
Method in brief: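 PRMT5 inhibitors were serially diluted in DMSO and acoustically spotted as dose-response series into plates before cell seeding. Cells were grown with compound for 7 days at 37 °C, 5% CO2, 90% humidity, then viability was read by CellTiter-Glo luminescence and reported as CC50.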

[2] = Hepatocyte stability assay, human; assay type: in vitro ADME; details: human hepatocytes, 1 μM
Description: BioreclamationIVT (Baltimore, MD) provided the cryopreserved hepatocytes, hepatocyte thawing (HT) medium, and Krebs-Henseleit buffer (KHB) medium. The stock solution concentration was 1 M in DMSO and was then diluted further in acetonitrile/water (1:1 v/v). All other chemicals were purchased from Sigma-Aldrich (St. Louis, MO) or Thermo Fisher Scientific (Waltham, MA).
The quench solution used to stop reactions in the hepatocyte incubations was comprised of 100% (v/v) acetonitrile. Internal Standard/Quench (IS/Q) solution used to stop reactions with the positive control also contained 200 nM Labetalol.
Metabolic Stability in Cryopreserved Hepatocytes: Test compounds, or the positive control metabolic substrate, was incubated in suspensions of cryopreserved hepatocytes at a final concentration of 1 μM. Vials containing cryopreserved hepatocytes were removed from liquid nitrogen and immediately immersed in a 37° C. water bath. The vials were swirled gently until the contents had thawed. They were then immediately emptied into 48 mL of pre-warmed thawing medium in a 50 mL conical tube. Cells remaining in the vial were re-suspended with 1.0 mL of pre-warmed thawing medium and added to the conical tube. The tube was capped and then gently inverted several times to re-suspend the hepatocytes. The cell suspension was centrifuged at 500×g for 10 minutes at room temperature and the supernatant discarded. The cell pellet was loosened by gently swirling the centrifuge tube. Non-supplemented KHB medium was added to obtain the appropriate target cell density. The viabilities of all cell preparations were ≥85%, assessed by Trypan blue dye exclusion.
For incubations, aliquots of hepatocyte suspension (250 μL containing a cell concentration of 2×10^6 cells/mL) were added to 250 μL of 2 μM substrate (test compound or positive control) in supplemented KHB in duplicate wells in a 24-well plate. Final concentration in the incubations were 1×10^6 cells/mL and 1 μM substrate. A cell-free control incubation (KHB only) was also included. The incubations were carried out with gentle shaking in a 37° C. incubator under a humid atmosphere of 95% air/5% CO2 (v/v). Aliquots (100 μL) were removed after 0, 1, 3, and 6 hours and added to 200 μL quenching solution. The samples were then placed on a shaker for 10 min followed by centrifugation at 3000×g for 20 min. The supernatant was transferred to a new plate and diluted with 100 μL of water to reduce the organic content and then placed on a shaker for 10 mins. Samples were injected and analyzed with methods described below.
Liquid Chromatography: Quantification of positive control and test compound was performed by analyte/internal standard peak area ratios (PAR) measured on a Thermo Scientific™ Q Exactive™ Hybrid Quadrupole-Orbitrap Mass Spectrometer MS/MS with an electrospray interface operating in positive ion mode. The mass spectrometer was coupled to a Dionex Ultimate® 3000 HPLC system. Samples (10 μL aliquots) were injected with a Leap Technologies HTC PAL autosampler. For positive control, the column used was a Thermo Scientific™ Hypersil GOLD™ HPLC column ([…], 50×2.1 mm). Mobile phase A consisted of 95% (v/v) water, 5% (v/v) acetonitrile, and contained 0.1% (v/v) formic acid (FA). Mobile phase B consisted of 95% (v/v) acetonitrile, 5% (v/v) water, and contained 0.1% (v/v) FA. Elution was achieved, at a flow rate of 0.5 mL/min, by a series of linear gradients: initial condition was 5% B at 0 min, isocratic for 20 seconds; then linear gradient to 95% B over 90 seconds, followed by isocratic for 60 seconds at 95% B, and re-equilibrated to initial conditions over 70 seconds.
Metabolic stabilities of positive control and test compound were determined by measuring the rates of disappearance of the parent with time by determining the % of parent remaining at time t (Ct) {Obach 1997}.
Data (% of parent remaining) were plotted on a semi-log scale and fitted using an exponential fit: […]

[3] = Pharmacokinetics in cassette in male Sprague-Dawley rats for Kp measurement; assay type: in vivo; details: 1 mg/kg, intravenous
Description: E.1 Test Animal: Male Sprague-Dawley Rats (225-300 g) with Indwelling Bilateral Jugular Vain Cannula (JVC/JVC) or Single Jugular Vein Cannula (JVC)
E.2 Pharmaceutical Formulation and Administration
Test compound was dissolved in the vehicle of 10% DMSO, 10% ethanol, 40% polyethylene glycol 300, and 40% propylene glycol to get 1 mg/mL test compound solution. The compound was administered by intravenous administration at a dose of 1 mL/kg. Fasting was not required.
• Anticoagulant: K2EDTA • Volume: approximately 225 μL blood at each bleed • Jugula vein via syringe and needle or another method (non-terminal samples) or exsanguination (cardiac puncture) under isoflurane (or CO2 inhalation if isoflurane is unavailable) anesthesia (terminal time points). Blood samples were collected into K2EDTA tubes • Tissue collection and processing: following the terminal blood collection, the brain and CSF were collected from each animal.

[4] = brain Kp = [brain]/[plasma], rat, read-out: Rat brain Kp
[5] = brain Kpu,u = Kp * (plasma free/rat brain free), read-out: Rat brain Kpu,u

Row | Structure (SMILES) | Human Predicted Hepatocyte CL [2] [mL/min/kg] | Kp [3, 4] | Kp [3, 5] | CC50 at 7 days [1] [nM]
1 | Nc1nc2cnc(C(=O)N3CCC[C@@H]4Oc5c(ccc(C(F)(F)F)c5F)[C@@H]43)cc2n2cncc12 [Ff-109, (4-aminoimidazo[1,5-a]pyrido[3,4-e]pyrazin-8-yl)((4aS,9bS)-6-fluoro-7-(trifluoromethyl)-3,4,4a,9b-tetrahydrobenzofuro[3,2-b]pyridin-1(2H)-yl)methanone] | 2.33 | 0.1 | 0.02 | 1380
2 | Cc1ncn2c1c(N)nc1cnc(C(=O)N3CCC[C@@H]4Oc5cc(C(F)(F)F)ccc5[C@@H]43)cc12 [Ff-499, (4-amino-3-methylimidazo[1,5-a]pyrido[3,4-e]pyrazin-8-yl)((4aS,9bS)-7-(trifluoromethyl)-3,4,4a,9b-tetrahydrobenzofuro[3,2-b]pyridin-1(2H)-yl)methanone] | 4.17 | 0.67 | 0.15 | 897
3 | Nc1nc2cc(F)c(C(=O)N3CCO[C@@H]4Cc5cc(C(F)(F)F)ccc5[C@@H]43)cc2n2cncc12 (single isomer, unassigned) [Ff-82] | 4.33 | 0.15 | 0.02 | 2070
4 | Nc1nc2cc(F)c(C(=O)N3CCC[C@@H]4Oc5cc(C(F)(F)F)ccc5[C@@H]43)cc2n2cncc12 [Ff-104, (4-amino-7-fluoroimidazo[1,5-a]quinoxalin-8-yl)((4aS,9bS)-7-(trifluoromethyl)-3,4,4a,9b-tetrahydrobenzofuro[3,2-b]pyridin-1(2H)-yl)methanone] | 8.3 | 0.39 | 0.07 | 470
5 | C[C@@H]1CN(C(=O)c2cc3c(cc2F)nc(N)c2cncn23)[C@H]2c3ccc(OC(F)(F)F)cc3C[C@H]2O1 (single isomer, unassigned) [Ff-183] | 3 | 0.41 | 0.06 | 853
6 | C[C@@H]1CN(C(=O)c2cc3c(cc2F)nc(N)c2cncn23)[C@H]2c3cc(F)c(OC(F)(F)F)cc3C[C@H]2O1 (single isomer, unassigned) [Ff-197] | 4.17 | 0.22 | 0.06 | 712
7 | Nc1nc2cnc(C(=O)N3CCC[C@@H]4Oc5cc(C(F)(F)F)cc(F)c5[C@@H]43)cc2n2cncc12 (single isomer, unassigned) [Fg-53] | 2.83 | 0.29 | 0.05 | 503
8 | Nc1nc2cnc(C(=O)N3CC4(CC4)C[C@@H]4Oc5cc(C(F)(F)F)ccc5[C@@H]43)cc2n2cncc12 [Ff-648, (4-aminoimidazo[1,5-a]pyrido[3,4-e]pyrazin-8-yl)((4aS,9bS)-7-(trifluoromethyl)-4a,9b-dihydro-2H-spiro[benzofuro[3,2-b]pyridine-3,1′-cyclopropan]-1(4H)-yl)methanone] | 5.67 | – | – | 650
9 | C[C@H]1CN(C(=O)c2cc3c(cc2F)nc(N)c2cncn23)[C@H]2c3ccc(C(F)(F)F)cc3C[C@H]2O1 (single isomer, unassigned) [Ff-81] | 3 | 0.17 | 0.04 | 1350
10 | C[C@H]1CN(C(=O)c2cc3c(cc2F)nc(N)c2cncn23)[C@H]2c3cc(F)c(C(F)F)cc3C[C@H]2O1 (single isomer, unassigned) [Ff-173] | 3 | 0.12 | 0.03 | 2250

Further lines, with some results ahead:

Row | Human Predicted Hepatocyte CL [2] [mL/min/kg] | Kp [3, 4] | Kp [3, 5] | Structure (SMILES) | CC50 at 7 days [1] [nM]
11 | 4.83 | – | – | Nc1nc2cnc(C(=O)N3CC[C@H]4C[C@@H]3c3ccc(OC(F)(F)F)cc3O4)cc2n2cncc12 [Ff-685, (4-aminoimidazo[1,5-a]pyrido[3,4-e]pyrazin-8-yl)((2S,6R)-9-(trifluoromethoxy)-3,4-dihydro-2H-2,6-methanobenzo[b][1,5]oxazocin-5(6H)-yl)methanone] | 1130
12 | 4 | 0.2 | 0.05 | Nc1nc2cnc(C(=O)N3CCC[C@@H]4Oc5cc(OC(F)(F)F)cc(F)c5[C@@H]43)cc2n2cncc12 (single isomer, unassigned) [Fg-55] | 799
13 | 3.5 | – | – | [2H]C1([2H])CC[C@@H]2Oc3cc(C(F)(F)F)ccc3[C@@H]2N1C(=O)c1cc2c(cn1)nc(N)c1cncn12 [Fg-60, (4-aminoimidazo[1,5-a]pyrido[3,4-e]pyrazin-8-yl)((4aS,9bS)-7-(trifluoromethyl)-3,4,4a,9b-tetrahydrobenzofuro[3,2-b]pyridin-1(2H)-yl-2,2-d2)methanone] | 683
14 | 3.67 | 0.37 | 0.11 | Nc1nc2cnc(C(=O)N3CCC[C@@H]4Oc5cc(OC(F)(F)F)ccc5[C@@H]43)cc2n2cncc12 [Ff-341, (4-aminoimidazo[1,5-a]pyrido[3,4-e]pyrazin-8-yl)((4aS,9bS)-7-(trifluoromethoxy)-3,4,4a,9b-tetrahydrobenzofuro[3,2-b]pyridin-1(2H)-yl)methanone] | 710
15 | 3.67 | 0.48 | 0.06 | Nc1nc2cnc(C(=O)N3CCC[C@@H]4Oc5cc(C(F)(F)F)ccc5[C@@H]43)cc2n2cncc12 [Ff-110, (4-aminoimidazo[1,5-a]pyrido[3,4-e]pyrazin-8-yl)((4aS,9bS)-7-(trifluoromethyl)-3,4,4a,9b-tetrahydrobenzofuro[3,2-b]pyridin-1(2H)-yl)methanone] | 516
16 | 3.5 | 0.29 | – | Nc1nc2cnc(C(=O)N3CC[C@H]4C[C@@H]3c3c(F)cc(C(F)(F)F)cc3O4)cc2n2cncc12 (single isomer, unassigned) [Ff-694] | 723
17 | 2.67 | – | – | Nc1nc2cnc(C(=O)N3CC[C@H]4C[C@@H]3c3ccc(C(F)(F)F)c(F)c3O4)cc2n2cncc12 [Ff-684, (4-aminoimidazo[1,5-a]pyrido[3,4-e]pyrazin-8-yl)((2S,6R)-10-fluoro-9-(trifluoromethyl)-3,4-dihydro-2H-2,6-methanobenzo[b][1,5]oxazocin-5(6H)-yl)methanone] | 1310
